Reference: PubChem BioAssay (NCI)
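Dose response: 5 concentrations. Exposure: 48 h. Format: 96-well plates. Endpoint: linear interpolation; highest concentration if not reached. GI50: concentration for 50% inhibition of growth. Definition used: TGI = concentration required for complete inhibition of growth.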

What was measured:
Assay in all cases: DTP human tumour cell line panel, 48 h
OVCAR-4 ovarian = tested on: OVCAR-4 ovarian
OVCAR-8 ovarian = tested on: OVCAR-8 ovarian
MDA-MB-435 = tested on: MDA-MB-435
NCI-H226 lung = tested on: NCI-H226 lung
SNB-75 CNS = tested on: SNB-75 CNS
IGROV1 ovarian = tested on: IGROV1 ovarian
OVCAR-5 ovarian = tested on: OVCAR-5 ovarian
BT-549 breast = tested on: BT-549 breast
SNB-19 CNS = tested on: SNB-19 CNS
SK-MEL-2 melanoma = tested on: SK-MEL-2 melanoma
K-562 leukemia = tested on: K-562 leukemia
HCC-2998 colon = tested on: HCC-2998 colon
EKVX NSCLC = tested on: EKVX NSCLC
HCT-15 colon = tested on: HCT-15 colon
RPMI-8226 leukemia = tested on: RPMI-8226 leukemia
SK-OV-3 ovarian = tested on: SK-OV-3 ovarian
SF-539 CNS = tested on: SF-539 CNS
UACC-257 melanoma = tested on: UACC-257 melanoma
SK-MEL-5 melanoma = tested on: SK-MEL-5 melanoma
HL-60(TB) leukemia = tested on: HL-60(TB) leukemia
HCT-116 colon = tested on: HCT-116 colon
MALME-3M melanoma = tested on: MALME-3M melanoma
NCI/ADR-RES ovarian = tested on: NCI/ADR-RES ovarian
RXF 393 renal = tested on: RXF 393 renal
SF-295 CNS = tested on: SF-295 CNS
UO-31 renal = tested on: UO-31 renal
MOLT-4 leukemia = tested on: MOLT-4 leukemia
TK-10 renal = tested on: TK-10 renal
786-0 renal = tested on: 786-0 renal
MCF7 breast = tested on: MCF7 breast
SR leukemia = tested on: SR leukemia
MDA-N = tested on: MDA-N
OVCAR-3 ovarian = tested on: OVCAR-3 ovarian
NCI-H522 lung = tested on: NCI-H522 lung
CAKI-1 renal = tested on: CAKI-1 renal
ACHN renal = tested on: ACHN renal
A498 renal = tested on: A498 renal
A549 NSCLC = tested on: A549 NSCLC
CCRF-CEM leukemia = tested on: CCRF-CEM leukemia
KM12 colon = tested on: KM12 colon
MDA-MB-231 breast = tested on: MDA-MB-231 breast
UACC-62 melanoma = tested on: UACC-62 melanoma
SW-620 colon = tested on: SW-620 colon
U251 CNS = tested on: U251 CNS
SK-MEL-28 melanoma = tested on: SK-MEL-28 melanoma
PC-3 prostate = tested on: PC-3 prostate
NCI-H460 lung = tested on: NCI-H460 lung
DU-145 prostate = tested on: DU-145 prostate
NCI-H23 lung = tested on: NCI-H23 lung
HOP-92 NSCLC = tested on: HOP-92 NSCLC
LOX IMVI melanoma = tested on: LOX IMVI melanoma
COLO 205 colon = tested on: COLO 205 colon
M14 melanoma = tested on: M14 melanoma
HT29 colon = tested on: HT29 colon
HS 578T breast = tested on: HS 578T breast
HOP-62 NSCLC = tested on: HOP-62 NSCLC
T-47D breast = tested on: T-47D breast
SN12C renal = tested on: SN12C renal
SF-268 CNS = tested on: SF-268 CNS

## CC1(C)OC(CCC#N)CN1C(=O)OCc1ccccc1 (stereo not drawn)
OVCAR-4 ovarian
  TGI: > 100 µM
OVCAR-8 ovarian
  TGI: > 100 µM
MDA-MB-435
  TGI: > 100 µM
NCI-H226 lung
  TGI: > 100 µM
SNB-75 CNS
  TGI: > 100 µM
IGROV1 ovarian
  TGI: > 100 µM
OVCAR-5 ovarian
  TGI: > 100 µM
BT-549 breast
  TGI: > 100 µM
SNB-19 CNS
  TGI: > 100 µM
SK-MEL-2 melanoma
  TGI: > 100 µM
K-562 leukemia
  TGI: > 100 µM
HCC-2998 colon
  TGI: > 100 µM
EKVX NSCLC
  TGI: > 100 µM
HCT-15 colon
  TGI: > 100 µM
RPMI-8226 leukemia
  TGI: > 100 µM
SK-OV-3 ovarian
  TGI: > 100 µM
SF-539 CNS
  TGI: > 100 µM
UACC-257 melanoma
  TGI: > 100 µM
SK-MEL-5 melanoma
  TGI: > 100 µM
HL-60(TB) leukemia
  TGI: > 100 µM
HCT-116 colon
  TGI: > 100 µM
MALME-3M melanoma
  TGI: > 100 µM
NCI/ADR-RES ovarian
  TGI: > 100 µM
RXF 393 renal
  TGI: > 100 µM
SF-295 CNS
  TGI: > 100 µM
UO-31 renal
  TGI: > 100 µM
MOLT-4 leukemia
  TGI: > 100 µM
TK-10 renal
  TGI: > 100 µM
786-0 renal
  TGI: > 100 µM
MCF7 breast
  TGI: > 100 µM
SR leukemia
  TGI: > 100 µM
MDA-N
  TGI: > 100 µM
OVCAR-3 ovarian
  TGI: > 100 µM
NCI-H522 lung
  TGI: > 100 µM
CAKI-1 renal
  TGI: > 100 µM
ACHN renal
  TGI: > 100 µM
A498 renal
  TGI: > 100 µM
A549 NSCLC
  TGI: > 100 µM
CCRF-CEM leukemia
  TGI: > 100 µM
KM12 colon
  TGI: > 100 µM
MDA-MB-231 breast
  TGI: > 100 µM
UACC-62 melanoma
  TGI: > 100 µM
SW-620 colon
  TGI: > 100 µM
U251 CNS
  TGI: > 100 µM
SK-MEL-28 melanoma
  TGI: > 100 µM
PC-3 prostate
  TGI: > 100 µM
NCI-H460 lung
  TGI: > 100 µM
DU-145 prostate
  TGI: > 100 µM
NCI-H23 lung
  TGI: > 100 µM
HOP-92 NSCLC
  TGI: > 100 µM
LOX IMVI melanoma
  TGI: > 100 µM
COLO 205 colon
  TGI: > 100 µM
M14 melanoma
  TGI: > 100 µM

## Cc1ccc(/C(=C/C=C(/C#N)C(N)=O)Sc2ncnn2C)cc1
OVCAR-4 ovarian
  GI50: 24.4 µM
  TGI: > 72.5 µM
OVCAR-8 ovarian
  GI50: 15.8 µM
  TGI: 43.8 µM
HT29 colon
  GI50: 13.3 µM
  TGI: 48.6 µM
HS 578T breast
  GI50: 20.1 µM
  TGI: 50.1 µM
MDA-MB-435
  GI50: 3.2 µM
  TGI: 24.7 µM
NCI-H226 lung
  GI50: 7.5 µM
  TGI: 25.9 µM
HOP-62 NSCLC
  GI50: 13.1 µM
  TGI: 27.7 µM
SNB-75 CNS
  GI50: 15.6 µM
  TGI: 30.8 µM
IGROV1 ovarian
  GI50: 18 µM
  TGI: > 55.1 µM
OVCAR-5 ovarian
  GI50: 8.89 µM
  TGI: 23.5 µM
T-47D breast
  GI50: 18.7 µM
  TGI: 40.1 µM
BT-549 breast
  GI50: 1.84 µM
  TGI: 9.57 µM
SN12C renal
  GI50: 7.89 µM
  TGI: 23.4 µM
SNB-19 CNS
  GI50: 22 µM
  TGI: 50.2 µM
SK-MEL-2 melanoma
  GI50: > 37.6 µM
  TGI: > 55.7 µM
K-562 leukemia
  GI50: 5.48 µM
  TGI: > 100 µM
HCC-2998 colon
  GI50: 13 µM
  TGI: 26.4 µM
EKVX NSCLC
  GI50: 1.13 µM
  TGI: 14.6 µM
HCT-15 colon
  GI50: 4.96 µM
  TGI: 19.9 µM
RPMI-8226 leukemia
  GI50: 2.4 µM
  TGI: > 22.9 µM
SK-OV-3 ovarian
  GI50: 23.1 µM
  TGI: > 62.3 µM
SF-539 CNS
  GI50: 6.19 µM
  TGI: 20.4 µM
UACC-257 melanoma
  GI50: 17.6 µM
  TGI: 33.6 µM
SK-MEL-5 melanoma
  GI50: 6.6 µM
  TGI: 15.1 µM
HL-60(TB) leukemia
  GI50: 12.3 µM
  TGI: 83 µM
HCT-116 colon
  GI50: 4.57 µM
  TGI: 15.3 µM
MALME-3M melanoma
  GI50: 2.03 µM
  TGI: 14.7 µM
NCI/ADR-RES ovarian
  GI50: 7.25 µM
  TGI: > 69.6 µM
RXF 393 renal
  GI50: 6.86 µM
  TGI: 25 µM
SF-295 CNS
  GI50: 16.4 µM
  TGI: 41.5 µM
SF-268 CNS
  GI50: 6.84 µM
  TGI: 25.6 µM
UO-31 renal
  GI50: 5.53 µM
  TGI: > 65.4 µM
MOLT-4 leukemia
  GI50: 10.1 µM
  TGI: > 100 µM
TK-10 renal
  GI50: 14.2 µM
  TGI: 29.1 µM
786-0 renal
  GI50: 4.35 µM
  TGI: 10.9 µM
MCF7 breast
  GI50: 3.49 µM
  TGI: > 55.3 µM
SR leukemia
  GI50: 2.51 µM
  TGI: > 35.2 µM
OVCAR-3 ovarian
  GI50: 5.95 µM
  TGI: 18.1 µM
NCI-H522 lung
  GI50: 2.6 µM
  TGI: > 52.5 µM
CAKI-1 renal
  GI50: 2.73 µM
  TGI: 19.6 µM
ACHN renal
  GI50: 2.94 µM
  TGI: 14.2 µM
A498 renal
  TGI: 3.4 µM
A549 NSCLC
  GI50: 21.6 µM
  TGI: 54.4 µM
CCRF-CEM leukemia
  GI50: 0.941 µM
  TGI: > 70.8 µM
KM12 colon
  GI50: 19.9 µM
  TGI: 44.3 µM
MDA-MB-231 breast
  GI50: 9.57 µM
  TGI: 22.9 µM
UACC-62 melanoma
  GI50: 11 µM
  TGI: 24.6 µM
SW-620 colon
  GI50: 3.87 µM
  TGI: 15.6 µM
U251 CNS
  GI50: 3.47 µM
  TGI: 19.1 µM
SK-MEL-28 melanoma
  GI50: 14.9 µM
  TGI: 35.7 µM
PC-3 prostate
  GI50: 11.4 µM
  TGI: 25.5 µM
NCI-H460 lung
  GI50: 4.66 µM
  TGI: 48.2 µM
DU-145 prostate
  GI50: 6.61 µM
  TGI: 18.2 µM
NCI-H23 lung
  GI50: 4.16 µM
  TGI: 15.8 µM
HOP-92 NSCLC
  GI50: 14.1 µM
  TGI: 30.5 µM
LOX IMVI melanoma
  GI50: 0.227 µM
  TGI: 1.4 µM
COLO 205 colon
  GI50: 15.4 µM
  TGI: 35.2 µM
M14 melanoma
  GI50: 6.4 µM
  TGI: 19.9 µM
